Results taken from patent US7282507B2, “Indole derivatives as selective androgen receptor modulators (SARMS)” (Janssen Pharmaceutica N.V., priority 2004, dated 2007).

test system: testosterone-enhanced ventral prostate and seminal vesicle weights; assay: Ventral Prostate and Seminal Vesicle Weight in vivo Assay; parameters: species or system rat; conditions: immature castrated male Sprague Dawley rats, once daily for five days, usually orally 40 mg/kg, with testosterone propionate 2 mg/kg s.c. Note: key: 'active' if the non weight adjusted prostate weight was ≦40 mg or the % Inhibition prostate weight, body weight adjusted was ≧40% @ 2 mg/day dosage; ID50's, if determined, of ≦15 mg/day also indicated an 'active' compound; listed herein as 'inactive' as they did not meet the specified criteria defined above.
Procedure: Immature (approximately 50 g) castrated male Sprague Dawley rats (Charles River) were treated once daily for five days with test compound (usually given orally at 40 mg/kg in a volume of 0.3 mL, in 30% cyclodextrin or 0.5% methylcellulose vehicle) and with testosterone propionate (given subcutaneously by injection at the nape of the neck at 2 mg/kg, in a volume of 0.1 mL in sesame oil). On the sixth day, the rats were euthanized by asphyxiation in carbon dioxide. Ventral prosatates and seminal vesicles were removed and their wet weights determined.
A test compound was said to be “active” if the non weight adjusted prostate weight was ≦40 mg or the % Inhibition prostate weight, body weight adjusted was ≧40% @ 2 mg/day dosage.

| SMILES | active / inactive: inhibition of testosterone-enhanced prostate weight |
| --- | --- |
| CC(O)(COc1cccc([N+](=O)[O-])c1)c1cc2cc(C#N)c(C(F)(F)F)cc2[nH]1 (stereo not drawn) [Compound 428, 2-[1-Hydroxy-1-methyl-2-(3-nitro-phenoxy)-ethyl]-6-trifluoromethyl-1H -indole-5-carbonitrile] | inactive |
| CCSCC(C)(O)c1cc2nc(C#N)ccc2[nH]1 (racemic) [Compound 6] | inactive |
| Cc1c(C(C)(C)O)[nH]c2cc(C(F)(F)F)c([N+](=O)[O-])cc12 [Compound 290] | inactive |
| CCSCC(C)(O)c1[nH]c2cc(C(F)(F)F)c(C#N)cc2c1I (single isomer, unassigned) [Compound 349] | active |
| CCSCC(C)(O)c1cc2cc(C#N)c(Cl)cc2[nH]1 (racemic) [Compound 224] | active |
| Cc1c(C(C)(C)O)[nH]c2cc(C(F)(F)F)c(C#N)cc12 [Compound 289] | active |
| CCc1c(C(C)(O)CS(=O)(=O)CC)[nH]c2cc(C(F)(F)F)c(C#N)cc12 (single isomer, unassigned) [Compound 354] | active |
| OC1(c2cc3cc(Cl)c(C(F)(F)F)cc3[nH]2)CCSC1 (racemic) [Compound 14] | inactive |
| CSCn1c(C(C)(O)C(F)(F)F)cc2cc(C#N)c(C(F)(F)F)cc21 (racemic) [Compound 333] | active |
| CCSCC(C)(O)c1cc2cc(C#N)c(C)cc2[nH]1 (racemic) [Compound 446] | inactive |
| CC(C)(O)c1cc2cc(Cl)c(C(F)(F)F)cc2[nH]1 [Compound 285] | inactive |
| CCSCC(C)(O)c1cc2cc(Cl)c(C(F)(F)F)cc2n1S(C)(=O)=O (racemic) [Compound 146] | inactive |
| CCSCC(O)c1[nH]c2cc(C(F)(F)F)c(C#N)cc2c1Br (racemic) [Compound 413] | inactive |
| CCSCC(C)(O)c1[nH]c2cc(C(F)(F)F)c(C#N)cc2c1CC (racemic) [Compound 344] | active |
| CCSCC(O)(c1cc2cc(C#N)c(C(F)(F)F)cc2[nH]1)C(F)(F)F (racemic) [Compound 327] | active |
| CCSCC(C)(O)c1cc2cc(C#N)ccc2[nH]1 (racemic) [Compound 403] | inactive |
| CC(O)(CS(=O)(=O)c1ccc(F)cc1)c1cc2cc(Cl)c(C(F)(F)F)cc2[nH]1 (stereo not drawn) [Compound 85] | inactive |
| CCS(=O)(=O)CC(C)(O)c1cc2cc(Cl)c(C(F)(F)F)cc2[nH]1 (racemic) [Compound 404] | active |
| CCS(=O)(=O)CC(C)(O)c1cc2cc([N+](=O)[O-])c(C(F)(F)F)cc2n1C (single isomer, unassigned) [Compound 250] | active |
| N#Cc1cc2cc(C(O)(C(F)(F)F)C(F)(F)F)[nH]c2cc1C(F)(F)F [Compound 357] | active |
| CC(O)(c1[nH]c2cc(C(F)(F)F)c(C#N)cc2c1I)C(F)(F)F (racemic) [Compound 330] | active |
| CCSCC(C)(O)c1c(C)c2cc(C#N)c(C(F)(F)F)cc2n1C (single isomer, unassigned) [Compound 318] | inactive |
| CCSCC(O)(CC)c1cc2cc(Cl)c(C(F)(F)F)cc2[nH]1 (racemic) [Compound 181] | active |
| CC(C)(O)c1[nH]c2cc(C(F)(F)F)c([N+](=O)[O-])cc2c1Cl [Compound 275] | active |

| SMILES | active / inactive: inhibition of testosterone-enhanced prostate weight |
| --- | --- |
| CC[S+]([O-])CC(C)(O)c1[nH]c2cc(C(F)(F)F)c(C#N)cc2c1C (mixture of isomers) [Compound 319] | active |
| CC(C)(O)c1[nH]c2cc(C(F)(F)F)c(Cl)cc2c1Br [Compound 280] | inactive |
| CC(C)(O)c1[nH]c2cc(C(F)(F)F)c(C#N)cc2c1Cl [Compound 287] | inactive |
| CC(C)(O)c1[nH]c2cc(C(F)(F)F)c([N+](=O)[O-])cc2c1Br [Compound 277] | active |
| CCSCC(C)(O)c1cc2cc(Cl)ccc2[nH]1 (racemic) [Compound 353] | inactive |
| CCSCC(C)(O)c1cc2cc(C#N)c(C(F)(F)F)cc2n1CC#N (racemic) [Compound 323] | inactive |
| CC(O)(c1[nH]c2cc(C(F)(F)F)c(C#N)cc2c1C#C[Si](C)(C)C)C(F)(F)F (single isomer, unassigned) [Compound 347] | active |
| CC(C)(O)c1[nH]c2cc(C(F)(F)F)c(C#N)cc2c1Br [Compound 288] | active |
| CC(C)(O)c1cc2cc([N+](=O)[O-])c(C(F)(F)F)cc2[nH]1 [Compound 274] | inactive |
| CC(C)(O)c1[nH]c2cc(C(F)(F)F)c([N+](=O)[O-])cc2c1C#N [Compound 291] | active |
| CCSCC(C)(O)c1c(C)c2cc(C#N)c(C(F)(F)F)cc2n1C (single isomer, unassigned) [Compound 317] | inactive |
| CC(O)(COc1ccc(C#N)cc1)c1cc2cc(C#N)c(C(F)(F)F)cc2[nH]1 (stereo not drawn) [Compound 426, 2-[2-(4-Cyano-phenoxy)-1-hydroxy-1-methyl-ethyl]-6-trifluoromethyl-1H -indole-5-carbonitrile] | inactive |
| CCSCC(C)(O)c1cc2cc(Cl)c(C#N)cc2[nH]1 (single isomer, unassigned) [Compound 228] | inactive |
| CC(O)(c1cc2cc(C#N)c(C(F)(F)F)cc2n1CC#N)C(F)(F)F (racemic) [Compound 331] | active |
| CCSCC(C)(O)c1cc2cc(C#N)c(C(F)(F)F)cc2n1COC (racemic) [Compound 322] | inactive |
| CC(O)(c1cc2cc(C#N)c(C(F)(F)F)cc2[nH]1)C(F)(F)F (stereo not drawn) [Compound 335, 2-(2,2,2-Trifluoro-1-hydroxy-1-methyl-ethyl)-6-trifluoromethyl-1H-indole-5-carbonitrile] | active |
| C=Cc1c(C(C)(C)O)[nH]c2cc(C(F)(F)F)c([N+](=O)[O-])cc12 [Compound 281] | inactive |
| CCSCC(C)(O)c1cc2cc([N+](=O)[O-])c(C(F)(F)F)cc2[nH]1 (racemic) [Compound 153] | inactive |
| CC(C)(O)c1[nH]c2cc(C(F)(F)F)c(C#N)cc2c1C#N [Compound 295] | inactive |
| CC(O)(CSCc1ccccn1)c1cc2cc([N+](=O)[O-])c(C(F)(F)F)cc2[nH]1 (racemic) [Compound 204] | inactive |
| CC(O)(C[S+]([O-])CC(F)(F)F)c1cc2cc([N+](=O)[O-])c(C(F)(F)F)cc2[nH]1 (mixture of isomers) [Compound 205] | active |
| CCSCC(C)(O)c1cc2cc(C#N)c(C(F)(F)F)cc2n1CC(F)(F)F (racemic) [Compound 237] | active |
| CCSCC(C)(O)c1[nH]c2cc(C(F)(F)F)c([N+](=O)[O-])cc2c1I (single isomer, unassigned) [Compound 244] | active |
| CC[S+]([O-])CC(C)(O)c1[nH]c2cc(C(F)(F)F)c(C#N)cc2c1C (mixture of isomers) [Compound 245] | inactive |
